pIC50: −log10 of the molar value.
Tests used:
[1] = biological target: T1, peroxiredoxin 2 (Prx2) (Homo sapiens, UniProt P32119); assay: glutamine synthetase protection assay with recombinant Prx2; assay type: biochemical
T1 sequence (P32119 2-198): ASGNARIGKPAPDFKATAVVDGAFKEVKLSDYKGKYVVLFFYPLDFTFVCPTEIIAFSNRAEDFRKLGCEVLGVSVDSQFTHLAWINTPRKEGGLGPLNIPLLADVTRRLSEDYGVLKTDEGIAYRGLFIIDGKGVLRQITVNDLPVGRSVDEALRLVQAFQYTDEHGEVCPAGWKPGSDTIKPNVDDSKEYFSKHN

[2] = biological target: T2, peroxiredoxin 1 (Prx1) (Homo sapiens, UniProt Q06830); assay: glutamine synthetase protection assay with recombinant Prx1; assay type: biochemical
T2 sequence (Q06830 2-199): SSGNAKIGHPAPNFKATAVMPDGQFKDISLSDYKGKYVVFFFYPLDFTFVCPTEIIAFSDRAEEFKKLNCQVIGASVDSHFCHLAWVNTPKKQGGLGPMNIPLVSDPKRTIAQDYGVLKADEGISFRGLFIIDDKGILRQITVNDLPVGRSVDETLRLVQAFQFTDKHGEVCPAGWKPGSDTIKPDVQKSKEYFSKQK

SMILES: CCC[C@H]1O[C@@H]2CC(=O)O[C@@H]2C2=C1C(=O)c1c(O)cccc1C2=O [FB, frenolicin B]
- pIC50 [1]: 5.38
- pIC50 [2]: 6.70

From publication PMC6557261 (Cell chemical biology, 2019)
